Laboratory results taken from ChEMBL document CHEMBL1138376, “Identification of a series of highly potent activators of the Nurr1 signaling pathway” (Bioorg Med Chem Lett, 2007).

target: T1, Nuclear receptor subfamily 4 group A member 2 (Homo sapiens, UniProt P43354); experiment: Activation of Nurr1 expressed in MN9D cells by luciferase reporter gene assay; type: cell-based; details: not given
T1 sequence (P43354 whole entry): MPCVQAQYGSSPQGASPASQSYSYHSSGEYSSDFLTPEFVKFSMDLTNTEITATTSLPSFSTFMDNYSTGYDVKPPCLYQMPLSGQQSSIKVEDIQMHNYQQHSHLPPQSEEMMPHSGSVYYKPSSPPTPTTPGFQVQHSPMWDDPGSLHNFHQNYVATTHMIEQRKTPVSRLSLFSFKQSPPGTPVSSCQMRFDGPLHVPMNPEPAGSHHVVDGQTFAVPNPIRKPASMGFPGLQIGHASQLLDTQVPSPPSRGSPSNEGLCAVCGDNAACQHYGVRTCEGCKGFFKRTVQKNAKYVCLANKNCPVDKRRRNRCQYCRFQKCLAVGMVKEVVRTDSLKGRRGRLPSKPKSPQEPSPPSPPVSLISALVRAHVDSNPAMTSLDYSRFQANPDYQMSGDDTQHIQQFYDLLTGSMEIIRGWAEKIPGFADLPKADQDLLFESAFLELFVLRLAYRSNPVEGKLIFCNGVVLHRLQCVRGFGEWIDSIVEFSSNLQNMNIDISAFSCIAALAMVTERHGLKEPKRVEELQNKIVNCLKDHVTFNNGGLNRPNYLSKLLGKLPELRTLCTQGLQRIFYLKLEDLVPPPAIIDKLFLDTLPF

EC50 [nM] | Structure (SMILES)
> 2000 | Cn1c(-c2ccc(Oc3ccccc3)cc2)cc2onc(-c3ccccc3)c2c1=O
3.5 | Cn1c(-c2ccc(COCCO)cc2)cc2onc(-c3ccccc3)c2c1=O
130 | Cn1c(-c2ccncc2)cc2onc(-c3ccccc3)c2c1=O
59.2 | COc1ccc(-c2cc3onc(-c4ccccc4)c3c(=O)n2C)c(OC)c1
> 2000 | Cc1cc2onc(-c3ccccc3)c2c(=O)n1C

The next lines start with the molecule.

Structure (SMILES) | EC50 [nM]
Cn1c(-c2ccc3c(c2)OCO3)cc2onc(-c3ccccc3)c2c1=O | 0.8
O=c1[nH]c(-c2ccccc2)cc2onc(-c3ccccc3)c12 [ISOXAZOLOPYRIDINONE] | 77.5
COCCOCc1ccc(-c2cc3onc(-c4ccccc4)c3c(=O)n2C)cc1 | 3.9
CN1CCN(Cc2ccc(-c3cc4onc(-c5ccccc5)c4c(=O)n3C)cc2)CC1 | 31.9
CN(C)Cc1ccc(-c2cc3onc(-c4ccccc4)c3c(=O)n2C)cc1 | 26
COc1ccc(-c2cc3onc(-c4ccccc4)c3c(=O)n2C)cc1 | 4.1
CC(C)OCCOCc1ccc(-c2cc3onc(-c4ccccc4)c3c(=O)n2C)cc1 | 113

test system: not listed separately; experiment: Bioavailability in mouse at 10 umol/kg, po; type: ADME, organism-based; details: in vivo

bioavailability [%] | Structure (SMILES)
95 | COCCOCc1ccc(-c2cc3onc(-c4ccccc4)c3c(=O)n2C)cc1

target: T1, Nuclear receptor subfamily 4 group A member 2; experiment: Activation of Nurr1 expressed in MN9D cells by luciferase reporter gene assay relative to control; type: cell-based; set-up: concentration or dose not given beside the values; details: not given

Activity [%] | Structure (SMILES)
226 | Cn1c(-c2ccc(COCCO)cc2)cc2onc(-c3ccccc3)c2c1=O
198 | Cn1c(-c2ccncc2)cc2onc(-c3ccccc3)c2c1=O
202 | COc1ccc(-c2cc3onc(-c4ccccc4)c3c(=O)n2C)c(OC)c1

The next lines start with the molecule.

Structure (SMILES) | Activity [%]
Cn1c(-c2ccc3c(c2)OCO3)cc2onc(-c3ccccc3)c2c1=O | 202
O=c1[nH]c(-c2ccccc2)cc2onc(-c3ccccc3)c12 [ISOXAZOLOPYRIDINONE] | 207
COCCOCc1ccc(-c2cc3onc(-c4ccccc4)c3c(=O)n2C)cc1 | 208
CN1CCN(Cc2ccc(-c3cc4onc(-c5ccccc5)c4c(=O)n3C)cc2)CC1 | 163
CN(C)Cc1ccc(-c2cc3onc(-c4ccccc4)c3c(=O)n2C)cc1 | 171
COc1ccc(-c2cc3onc(-c4ccccc4)c3c(=O)n2C)cc1 | 185
CC(C)OCCOCc1ccc(-c2cc3onc(-c4ccccc4)c3c(=O)n2C)cc1 | 173
